Results: US9089572B2, “Inhibitors of p97” (California Institute of Technology, priority 2008, dated 2015)
Values joined by “and” are separate entries in the source; they are usually repeats but may differ in a detail not shown here. Identical values can stand only once.

Columns and labels:
[1] = test system: HeLa cell line that stably expresses UbG76V-GFP; assay: Accumulation of UbG76V-GFP in HeLa cells (fluorescence microscopy); format: cell-based
Description: As a control, the same cells were treated with the proteasome inhibitor MG132. In the latter set of experiments, a HeLa cell line that stably expresses UbG76V-GFP was transfected with either wild type (WT), D1 mutant (E305Q), D2 mutant (E578Q) or E305Q, E578Q double mutant (QQ) murine 97-pcDNA4.1 plasmid (0.05 μg/100 μL) in a 96-well plate. After 23 h, the intensity of UbG76V-GFP signal was measured on a Molecular Devices ImageXpress automated fluorescence microscope. […] The direct accumulation of Ub-G76V-GFP caused by compound 2 at 25 μM is 4-fold less than that caused by MG132 at 2 μM. This is likely due to the fact that only fully folded Ub-G76V-GFP should require p97 for degradation by the proteasome.
As a second test of whether compound 8 can inhibit p97 in vivo, it was evaluated whether it can cause accumulation of the UbG76V-GFP reporter. A HeLa cell line that stably expresses UbG76V-GFP was treated with compound 8 for 1 h at 37° C., and was then evaluated by fluorescence microscopy. As a control, the same cells were treated with the proteasome inhibitor MG132. […] The level of GFP fluorescence was quantified in cells treated with compound 8 at different doses and for different periods of time (FIG. 28).

Yeast Cdc48 = Yeast Cdc48 (Saccharomyces cerevisiae, UniProt P25694); assay: In vitro ATP hydrolysis, yeast Cdc48; format: biochemical
Description: (§1) Compounds were tested for their ability to inhibit the ATPase activity of purified wild type murine p97 and T532C-Cdc48, a mutant of yeast Cdc48 in which the residue analogous to cysteine 522, threonine 532, was converted to cysteine.
(§2) To determine whether cysteine 522 is necessary for inhibition of p97 by compound 2, a mutant of p97 was constructed in which cysteine 522 was converted to either alanine (C522A-mp97) or threonine (C522T-mp97). The IC50 values of compound 2 were measured the against various enzymes during a 20-minute preincubation (see Table 2). Mutation of cysteine 522 in p97 to either alanine or threonine decreased sensitivity to compound 2 by greater than 100-fold. On the other hand, yeast Cdc48, which normally is quite resistant to compound 2, became nearly 30-fold more sensitive to the compound upon introduction of a cysteine in place of threonine 532.

cysteine 522 of p97 = cysteine 522 of p97 (Mus musculus, UniProt Q01853); assay: Tandem mass spectrometry of tryptic peptides of inhibited p97; format: binding; conditions: trypsin digest, HPLC
Description: To determine if inhibition by compound 2 requires a reactive thiol, the experiment was repeated with p97 except that various nucelophiles were included during the preincubation. […] To evaluate whether compound 2 modifies cysteine 522, inhibited p97 was digested with trypsin and peptides were fractionated by HPLC and analyzed by tandem mass spectrometry.

13 different cell lines = assay: MTT cell growth assay, summary across 13 different cell lines; format: cell-based; conditions: read-out: 50% inhibition of growth (GI50) across the 13 different cell lines; range across 13 cell lines
Description: (§3) To probe further the effect of compound 2 and related compounds 1, 3, 5, 6 and 7, various concentrations of these compounds were added to 13 different cell lines and incubated for 48 or 72 h. An MTT assay was then performed to evaluate cell growth and survival.
Data for the assay with MCF-7 cells and HeLa cells is shown in FIG. 21 and FIG. 22, respectively. […] Thus, compound 2 blocks p97-dependent processes in cells and also blocks the proliferation of cancer cell lines, illustrating its potential utility as an anti-proliferative drug to treat cancer.

RPMI8226 cells = assay: Accumulation of high molecular weight ubiquitin conjugates (anti-ubiquitin immunoblot), RPMI8226 cells; format: cell-based; conditions: 1 h at 37° C.
Text: To evaluate whether compound 2 can target p97 activity in cells, we sought to determine whether this compound induces accumulation of high molecular weight ubiquitin conjugates, since it is known that RNAi-mediated knockdown of p97 in mammalian cells has this effect (Wojcik, C. et al. J. Cell Sci. (2004) 117, 281-292). As a positive control for this experiment, the proteasome inhibitor MG132 was used. […] The cells were then harvested, lysed, and centrifuged to generate soluble and insoluble fractions. These fractions were then immunoblotted with anti-ubiquitin antibodies to detect accumulation of high molecular weight conjugates. Blots were also probed with anti-PSTAIRE antibodies as a loading control. […] This effect is particularly pronounced in the insoluble fraction.
To evaluate whether compound 8 can target p97 activity in cells, it was determined whether this compound induces accumulation of high molecular weight ubiquitin conjugates, since it is known that RNAi-mediated knockdown of p97 in mammalian cells has this effect (Wojcik, C. et al. J. Cell Sci. (2004) 117, 281-292). The proteasome inhibitor bortezomib (velcade) was employed as a positive control for this experiment. HeLa (FIG. 25) or RPMI8226 (FIG. 26) cells were treated with Velcade, compound 8, or a combination thereof for 1 h at 37° C. The cells were then harvested and cell lysates were immunoblotted with anti-ubiquitin antibodies to detect accumulation of high molecular weight conjugates. Blots were also probed with anti-PSTAIRE antibodies as a loading control.

RL = assay: MTT cell growth assay, RL; format: cell-based; conditions: Homo sapiens, 48 or 72 h, read-out: Cell line inhibition of growth GI50 RL
Description: as §3

T532C-Cdc48 = T532C-Cdc48 (Saccharomyces cerevisiae, UniProt P25694, T532C); assay: In vitro ATP hydrolysis (malachite green ATPase assay), T532C-Cdc48; format: biochemical, yeast
Description: as §1, §2

DU145 = assay: MTT cell growth assay, DU145; format: cell-based; conditions: Homo sapiens, DU-145, 48 or 72 h, read-out: Cell line inhibition of growth GI50 DU145
Description: as §3

Molt4 = assay: MTT cell growth assay, Molt4; format: cell-based; conditions: Homo sapiens, MOLT-4, 48 or 72 h, read-out: Cell line inhibition of growth GI50 Molt4
Description: as §3

293 = assay: MTT cell growth assay, 293; format: cell-based; conditions: Homo sapiens, HEK293, 48 or 72 h, read-out: Cell line inhibition of growth GI50 293
Description: as §3

C522T-mp97 = biological target: T1, C522T-mp97 (Mus musculus, UniProt Q01853, C522T); assay: In vitro ATP hydrolysis, C522T-mp97 mutant; format: biochemical, murine; conditions: 20-minute preincubation
T1 construct: made in house
Description: as §1, §2

MRC5-WT = assay: CellTiter-Glo growth inhibition, parental MRC5 cells; format: cell-based; conditions: Homo sapiens, 48 h at 37° C., read-out: Cell line inhibition of growth GI50 MRC5-WT
wild type murine p97 = wild type murine p97 (Mus musculus, UniProt Q01853); assay: In vitro ATP hydrolysis (malachite green ATPase assay), wild type murine p97; format: biochemical
Description: as §1

Sequence of wild type murine p97 (Q01853 whole entry): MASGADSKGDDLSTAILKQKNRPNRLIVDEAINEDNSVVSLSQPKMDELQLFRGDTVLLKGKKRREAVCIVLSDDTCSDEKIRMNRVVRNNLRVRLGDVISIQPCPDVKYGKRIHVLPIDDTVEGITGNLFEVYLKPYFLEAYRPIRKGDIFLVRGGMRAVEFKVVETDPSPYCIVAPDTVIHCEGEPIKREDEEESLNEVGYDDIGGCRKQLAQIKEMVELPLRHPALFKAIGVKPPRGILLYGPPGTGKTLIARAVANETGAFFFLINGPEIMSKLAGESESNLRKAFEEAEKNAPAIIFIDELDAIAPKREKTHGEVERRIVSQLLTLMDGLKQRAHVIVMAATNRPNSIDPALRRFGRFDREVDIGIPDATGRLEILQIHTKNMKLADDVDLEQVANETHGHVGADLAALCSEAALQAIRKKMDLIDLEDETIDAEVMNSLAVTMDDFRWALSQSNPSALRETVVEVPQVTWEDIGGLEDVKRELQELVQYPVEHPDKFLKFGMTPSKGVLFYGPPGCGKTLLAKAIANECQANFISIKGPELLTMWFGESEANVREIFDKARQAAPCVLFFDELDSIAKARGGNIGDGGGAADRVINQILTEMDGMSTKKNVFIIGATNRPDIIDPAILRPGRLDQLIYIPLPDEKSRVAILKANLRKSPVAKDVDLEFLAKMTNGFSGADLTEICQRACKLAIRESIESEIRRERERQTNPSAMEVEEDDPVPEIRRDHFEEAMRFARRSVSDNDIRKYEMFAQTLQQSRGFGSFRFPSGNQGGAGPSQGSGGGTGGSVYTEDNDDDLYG
Sequence of T532C-Cdc48 (P25694 whole entry T532C): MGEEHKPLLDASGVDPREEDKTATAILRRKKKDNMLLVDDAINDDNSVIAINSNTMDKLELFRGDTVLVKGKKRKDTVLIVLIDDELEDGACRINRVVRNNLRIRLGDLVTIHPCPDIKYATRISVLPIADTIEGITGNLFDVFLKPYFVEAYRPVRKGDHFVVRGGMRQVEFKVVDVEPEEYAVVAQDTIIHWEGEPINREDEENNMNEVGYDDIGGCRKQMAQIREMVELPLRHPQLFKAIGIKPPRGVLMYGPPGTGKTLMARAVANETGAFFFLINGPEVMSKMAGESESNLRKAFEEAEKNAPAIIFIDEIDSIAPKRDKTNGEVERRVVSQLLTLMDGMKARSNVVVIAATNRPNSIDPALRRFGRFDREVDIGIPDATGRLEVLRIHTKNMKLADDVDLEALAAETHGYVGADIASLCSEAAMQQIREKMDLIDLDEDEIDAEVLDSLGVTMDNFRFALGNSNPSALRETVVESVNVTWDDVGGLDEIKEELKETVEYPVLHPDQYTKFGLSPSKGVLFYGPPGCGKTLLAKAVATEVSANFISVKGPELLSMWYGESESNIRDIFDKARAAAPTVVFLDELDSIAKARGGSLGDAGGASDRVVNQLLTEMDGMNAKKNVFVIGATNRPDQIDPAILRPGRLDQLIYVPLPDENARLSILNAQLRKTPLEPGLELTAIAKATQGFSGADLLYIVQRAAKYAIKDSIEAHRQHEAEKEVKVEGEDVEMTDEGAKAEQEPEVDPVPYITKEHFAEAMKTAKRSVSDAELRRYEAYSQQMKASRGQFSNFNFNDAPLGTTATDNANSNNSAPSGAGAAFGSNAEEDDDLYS
T1 sequence (Q01853 whole entry C522T): as the sequence (Q01853 whole entry) above, with C522T counted along it
Sequence of Yeast Cdc48 (P25694 whole entry): as the sequence (P25694 whole entry T532C) above, with C532T counted along it
Sequence of cysteine 522 of p97 (Q01853 whole entry): as the sequence (Q01853 whole entry) above

With `C=CC(=O)Nc1ncnc2c1c(-c1ccccc1)nn2C(C)(C)C` [Compound 2] the “accumulation of UbG76V-GFP” value ([1]; 4 hours at 37° C., fluorescence microscopy) was “caused accumulation of UbG76V-GFP”, the “direct accumulation of Ub-G76V-GFP, less than that caused by MG132 at 2 μM” value ([1]; compound at 25 μM vs MG132 at 2 μM) was 4 fold and the IC50 (Yeast Cdc48) was 376 ± 95 µM. For the same compound, the “covalent modification of cysteine 522” value (cysteine 522 of p97) was “formed a covalent adduct on cysteine 522”, the GI50 (13 different cell lines) was 0.4 to 5.1 µM and the “accumulation of high molecular weight ubiquitin conjugates, RPMI8226 cells” value (RPMI8226 cells) was “caused accumulation of high molecular weight ubiquitin conjugates”. The GI50 (RL) was 2.1 ± 1.1 µM, the IC50 (T532C-Cdc48) was 14 ± 5 µM and the “increase in sensitivity of yeast Cdc48 on introduction of cysteine in place of threonine 532” value (T532C-Cdc48; T532C-Cdc48 vs yeast Cdc48) was about 30 fold. For the same compound, the GI50 (DU145) was 3.6 ± 1.5 µM, the GI50 (Molt4) was 1.1 ± 0.5 µM and the GI50 293 was 5.1 ± 2.3 µM. For the same compound, the IC50 (C522T-mp97) was 82 ± 45 µM, the GI50 (MRC5-WT) was 17 ± 10 µM and the IC50 (wild type murine p97; 200 nM p97, 20 min preincubation at 23° C., malachite green, read-out: In vitro ATP Hydrolysis Activity IC50 WT-mP97) was 0.6 µM and 0.62 µM. For the same compound, the “inhibitory effect on p97 with nucleophiles in the preincubation” value (wild type murine p97; cysteine or dithiothreitol in the preincubation buffer) was “counteracted”.
